Results: patent US11969402B2, “Compositions and methods for skin rejuvenation” (THE JOHNS HOPKINS UNIVERSITY, priority 2019, dated 2024)

Experiments:
[1] = system: human scalp keratinocytes; experiment: Retinoid levels (RA by LC-MS/MS, ROL and RE by HPLC-UV) in keratinocytes; assay type: cell-based; conditions: human scalp keratinocytes, rhIL6 0, 10, 50, 100 ng per ml, 2 days
Source text: Small interference RNA (siRNA) transfection. Human ALDH1A2 (Santa Cruz Biotechnology, sc41443), ALDH1A3 (Santa Cruz Biotechnology, sc43611), TLR3 (Dharmacon, M-007745-00), TRIF (Santa Cruz Biotechnology, sc106845), IRF3 (Santa Cruz Biotechnology, sc35710), NF-κB (Santa Cruz Biotechnology, sc29410) and non-targeting control (scramble) siRNAs (Santa Cruz Biotechnology, sc37007 & Dharmacon, D-001210) were commercially provided. Human scalp keratinocytes (3×10^5 cells per well) in 12-well plates were transfected with 20 nM of siRNAs using Lipofectamine® RNAiMAX (Thermo Fisher Scientific, #13778150) following the manufacturer's directions. Poly (I:C) (0.1 μg per ml) was applied to transfected cells and incubated for 48 hrs. At the end of transfection period, cells were harvested to isolate protein to perform qRT-PCR, western blot, and RA mass spectrometry.
IL6 treatment. Recombinant human interleukin 6 (rhIL6) (R&D system; 206-IL-010) was treated into human scalp keratinocytes with dose-dependent manners (0, 10, 50, and 100 ng per ml) for 2 days. Cells were harvested and lysates were used for RA measurement.
Determination of Retinoid Levels. For in vitro samples, human scalp keratinocytes were incubated with 0.5 μg per ml of Poly (I:C) for 48 hrs or siRNAs-transfected cells were incubated with 0.1 μg per ml of Poly (I:C) for 48 hrs. For in vivo samples, skin was analyzed from wild-type and Tlr3^−/− unwounded and wounded skin where wound regions (center and edge area) were cut by scalpel. Human skin was analyzed for retinoids with and without CO2 laser treatment as described. All samples were frozen at collection and stored at −80° C. until extraction. For in vitro experiments, media and cell pellets were analyzed separately. For in vivo experiments, tissues were homogenized in saline. Extraction of retinoids was performed under yellow lights using a two-step liquid-liquid extraction that has been described in detail previously using 4,4-dimethyl-RA as an internal standard for RA and retinyl acetate as an internal standard for retinol and total retinyl ester^43-46. For the extraction of retinoids, 1 to 3 ml of 0.025 M KOH in ethanol was added to tissue homogenates (in vivo) or cell culture (in vitro) samples. Then 10 ml hexane (for in vivo tissue sample) or 5 ml hexane (for in vitro cell culture sample) was added to the aqueous ethanol phase. The samples were vortexed and centrifuged for 1 to 3 min at 1000 rpm in a Dynac centrifuge (Becton Dickinson) to facilitate phase separation and pellet precipitated protein. The hexane (top) phase containing nonpolar retinoids (ROL and RE) was removed. 4 M HCl (60-180 μl) was added to the remaining aqueous ethanol phase, samples were vortexed, and then polar retinoids (RA) were removed by extraction with a second 5-10 ml aliquot of hexane as described above. […]
Levels of RA were determined by liquid chromatography-multistage tandem mass spectrometry (LC-MRM^3) which is an LC-MS/MS method utilizing two distinct fragmentation events for enhanced selectivity^43. RA was measured using a Shimadzu Prominence UFLC XR liquid chromatography system (Shimadzu, Columbia, MD) coupled to an AB Sciex 5500 or 6500+ QTRAP hybrid triple quadrupole mass spectrometer (AB Sciex, Framingham, MA) using atmospheric pressure chemical ionization (APCI) operated in positive ion mode as previously described^43. […]

[2] = system: Wound Induced Hair Neogenesis (WIHN); experiment: Wound Induced Hair Neogenesis (WIHN), regenerated hair follicles counted by CSLM; assay type: in vivo, mouse; conditions: WT mice, topical 0.1 μg per mouse on WD1, with or without Poly (I:C)
Procedure: (§1) Wound Induced Hair Neogenesis (WIHN). All experiments were followed with the present inventors' WIHN protocol^1,9. Briefly, hair was shaved and a 1.2 cm^2 full-thickness skin on the backs of 21-day old (telogen) male and female mice was removed by sterile scissors. A single treatment of RA (30 μl) (0.1 μg per mouse) (Millipore Sigma, R2625) and BMS493 (30 μl) (0.1 μg per mouse) (Cayman Chemical, #17418) was applied topically onto open wound on WD1 of Tlr3^−/− and WT mice, respectively. Poly (I:C) (50 μl) (5 μg per mouse) (Invivogen, tlrl-pic) was injected under the healed scab on WD3 of WT mice as described before^9,34. On WD20-24, numbers of regenerated hair follicles were visualized and quantified in the re-epithelialized skin by non-invasive confocal scanning laser microscopy (CSLM) (Caliber I.D., VIVASCOPE 1500) as published^1,9. As a vehicle (Control), ethanol (EtOH), dimethylsulfoxide (DMSO), or PBS was treated for RA, BMS493, and Poly (I:C), respectively.

[3] = system: keratinocytes of Tlr3−/− mice; experiment: Western blot of stem cell markers in keratinocytes of Tlr3-/- mice; assay type: cell-based, mouse; conditions: keratinocytes of Tlr3−/− mice, BMS493 1 μM pre-treated
Procedure: Adult keratinocytes isolation and cultures. For human keratinocytes, 3-mm skin biopsies were taken from areas of the occipital scalp through above IRB protocols using enzyme digestion method as described in the literature^30,31. For mouse keratinocytes, tails of adult mice were used and followed by the same protocol of human keratinocytes. Briefly, the skin fragments were incubated in 0.4% dispase II solution overnight at 4° C., allowing separation of epidermis from dermis. Then epidermis was incubated with 0.25% trypsin-EDTA (Lonza, Walkersville, MD) to isolate keratinocytes for 5 min at 37° C. Adult keratinocytes were maintained in KGM including defined growth factors (KGM-GOLD Bullet kit, #192060) (Lonza) and supplemented with 10 μM of ROCK inhibitor (Y-27632) (Cayman Chemical, #10005583) until use^32. For all in vitro experiments, primary keratinocytes were passaged at least once to eliminate contaminating other cells isolated from epidermis and used at passage 2-4 for human and passage 1-2 for mouse keratinocytes.
(§2) BMS493 treatment. BMS493 pan-RARs antagonist (1 μM) was pre-treated into keratinocytes for an hour and cells were incubated with RA (0.1 μM and 0.5 μM for human and mouse keratinocytes, respectively) or Poly (I:C) (0.1 μg per ml for both human and mouse keratinocytes) for 48 hrs. At the end of the experiment, cells were harvested for RNA and protein extraction to do further analysis including qRT-PCR and western blot.
Western blot analysis. Human and mouse keratinocytes were disrupted in M-PER lysis buffer (Thermo Fisher Scientific, #78501) containing protease inhibitors (Thermo Fisher Scientific, #87786) using ultrasonic homogenizer (20% power with 5 times every 2 seconds) to extract proteins. Then, protein concentrations were determined by BCA method (Thermo Fisher Scientific, #23225). Western blot procedures were followed by the protocol of NuPAGE system (Thermo Fisher Scientific). […] The signal intensity of protein was quantified using Image Lab software (Bio-Rad). […]

[4] = system: human scalp keratinocytes; experiment: Western blot / immunostaining of ALDH1A3, KRT15, KRT19 in human keratinocytes; assay type: cell-based; conditions: human keratinocytes
Procedure: as §2
Western blot analysis. Human and mouse keratinocytes were disrupted in M-PER lysis buffer (Thermo Fisher Scientific, #78501) containing protease inhibitors (Thermo Fisher Scientific, #87786) using ultrasonic homogenizer (20% power with 5 times every 2 seconds) to extract proteins. Then, protein concentrations were determined by BCA method (Thermo Fisher Scientific, #23225). Western blot procedures were followed by the protocol of NuPAGE system (Thermo Fisher Scientific). Briefly, 20 μg of protein samples were loaded for electrophoresis and transferred to polyvinylidene di-fluoride (PVDF) membrane (Bio-Rad, Hercules, CA). After blocking for at least an hour in 5% non-fat dry milk, the membrane was incubated with primary antibodies with appropriate dilutions (Table 2) at 4° C. overnight and followed by incubation with secondary antibodies for 1 hour at room temperature. Protein amounts were normalized to rabbit polyclonal anti-human β-actin antibody (1:1,000 dilution) (Cell Signaling Technology). Finally, proteins were visualized using SuperSignal West Pico PLUS chemiluminescent substrate kit (Thermo Fisher Scientific, #34577) and saved as image files using ChemiDoc XRS^+ (Bio-Rad). The signal intensity of protein was quantified using Image Lab software (Bio-Rad). Original images of representative blots were provided in the Source data file.
Immunofluorescence. For tissues, frozen-sections of mouse skin samples were stained with primary antibodies with appropriate dilution at 4° C. overnight, followed by incubation with goat anti-rabbit IgG labeled with Alexa Flour® 488 (Life Technologies) and 594 (Life Technologies) for 1 hour at room temperature. For cells, keratinocytes (3×10^5 cells) plated on cover-slip were fixed with 4% Paraformaldehyde (PFA) for 10 min, permeabilized in PBS including 0.5% Triton X-100 for 15 min at room temperature. After washing with PBS 3 times, cells were stained with primary antibodies overnight at 4° C., followed by incubation with goat anti-rabbit or mouse IgG labeled with Alexa Flour® 488 for 1 hour at room temperature. Cell nuclei were visualized by mounting medium including DAPI (Vector Laboratories, Burlingame, CA, H-1200). Fluorescence images were observed by fluorescence microscopy (Leica microsystems), taken pictures with ×100 (low magnification) and ×200 (high magnification), and saved as image files.

wound beds = experiment: Immunostaining of healing wounds; assay type: in vivo, mouse; conditions: WT mice
Procedure: as §1
Immunofluorescence. […] Fluorescence images were observed by fluorescence microscopy (Leica microsystems), taken pictures with ×100 (low magnification) and ×200 (high magnification), and saved as image files.

## IL-6: Recombinant human interleukin 6 (R&D system; 206-IL-010)
[1]
  RA accumulation: sufficient to substantially stimulate RA accumulation

## CC1(C)CC=C(C#Cc2ccccc2)c2cc(/C=C/c3ccc(C(=O)O)cc3)ccc21 [BMS493]
[2]
  WIHN: almost completely ablated
[3]
  RA-induced Krt15 and Krt19 expression: substantially inhibits expression
  RA-induced active β-catenin (ABC) expression: inhibits induction
[4]; BMS493 1 μM pre-treated
  RA and Poly (I:C)-induced KRT15 and KRT19 expression: substantially inhibited
Wound beds
  Wnt7b and Krt15 protein expression in wound beds prior to regeneration: decreased

## CCN(CC)c1ccc(C=O)cc1 [DEAB, N,N-diethylaminobenzaldehyde]
[4]; broad ALDH chemical inhibition
  Poly (I:C) induction of ALDH1A3, KRT15 and KRT19 protein: disrupted
